{
  "source": "paper PMC6692352",
  "about": "“DF2726A, a new IL-8 signalling inhibitor, is able to counteract chemotherapy-induced neuropathic pain” (Scientific Reports, 2019)",
  "key": {"[1]": {"test_system": "oxaliplatin-induced mechanical allodynia", "assay": "Oxaliplatin-induced mechanical allodynia (Dynamic Plantar Aesthesiometer)", "type": "in vivo, male Wistar rats", "details": "30 mg/kg os for 24 days; at 14 (P < 0.05) and 21 days (P < 0.01) vs Oxa + saline", "procedure": "Behavioural tests were performed on male Wistar rats (200–250 g, Harlan, Italy) housed in the animal care facility at the Department of Pharmacy of the University of Naples Federico II, Italy, as previously described. Animals were housed, in a group of five, in a room with controlled temperature (22 ± 1 °C), humidity (60 ± 10%) and light (12 h per day); food and water were available ad libitum. All animals were weighted on the day of each treatment. All behavioural tests were performed between 09:00 and 17:00 h, and the animals were used only once. Animal care and manipulations were conducted in conformity with International and National law and policies (EU Directive 2010/63/EU for animal experiments, ARRIVE guidelines, and the Basel declaration including the 3R concept). The procedures reported here were approved by the Institutional Committee on the Ethics of Animal Experiments (CVS) of the University of Naples Federico II and by Ministero della Salute under protocol no. 2014-00884607. […]\nTo assess for changes in sensation or in the development of mechanical allodynia, sensitivity to tactile stimulation was measured using the Dynamic Plantar Aesthesiometer (DPA, Ugo Basile, Italy), which is an automated version of the von Frey hair assessment. […] The means of paw withdrawal (expressed in grams) were calculated from an average of four separate measurements. […]"}, "[2]": {"test_system": "IENFs (PGP9.5)", "assay": "Oxaliplatin-induced loss of IENFs, PGP9.5 immunofluorescence of paw sections", "type": "in vivo, male Wistar rats", "details": "30 mg/kg os, rat paw sections", "procedure": "(§1) Animals were sacrificed and a biopsy (3 mm) was taken from pad of the right hind paw. Biopsies were immediately placed in Zamboni’s fixative, where they were left at 4 °C. Tissues were then transferred to 20% sucrose for at least 24 h and used for immunohistochemistry analysis. Specimens were frozen in Optimal Cutting Temperature compound (OCT, Sakura Finetek Inc, CA, USA) and sliced into 20 μm thick serial coronal sections by cryostat AMES LAB-TEK (Westmont, Illinois, USA). […]\n(§2) Five slices were examined for each animal. For each slide, 4 fields were counted. For quantitative evaluation of IL-8/CINC-1 (the homolog of IL-8 in rat) and […], photomicrographs for each condition were analysed by ImageJ software (National Institutes of Health, Bethesda, MD, USA) as previously described. […] The signal was first measured on the tissue in an area devoid of signal at visual inspection and assumed as background; the threshold was then set at 1.5 times the background and the surface area and mean grey intensity were measured for all areas above the threshold. […]"}, "[3]": {"test_system": "IL-8/CINC1", "assay": "IL-8/CINC1 immunofluorescence of paw sections of oxaliplatin rats", "type": "in vivo, male Wistar rats", "details": "30 mg/kg os, rat paw sections", "procedure": "as §1, §2"}, "[4]": {"test_system": "acetylated α-tubulin", "assay": "Acetylated α-tubulin in F11-derived neurons (immunofluorescence, western blotting)", "type": "cell-based", "details": "24 h"}, "[5]": {"test_system": "PI3K/p-cortactin", "assay": "PI3K/p-cortactin western blotting in F11-derived neurons", "type": "cell-based", "details": "24 h"}, "[6]": {"test_system": "F11 cells", "assay": "Cell viability assay in F11 neuronal cells", "details": "24 h, 5–20 µM", "quoted_text": "For the subsequent experiments, DF2726A was used at a final concentration of 1 µM, and oxaliplatin at a final concentration of 20 µM. For comparison, paclitaxel alone or in combination with DF2726A was also used.\nF11 hybridoma cells (ECACC 08062601), chosen as a model of DRG neurons[22],[32],[33] were cultivated in DMEM (Euroclone, Milan, Italy) supplemented with 10% FBS (Sigma-Aldrich, St. Louis, MO, USA), 1% penicillin/streptomycin (Euroclone, MI, Italy) and 1% glutamine (Euroclone) at 37 °C, in humidified 95% air with 5% CO2 atmosphere. For all the experiments, cells were used at 18th passage.\nSupplementary Fig. 2: Effect of DF2726A, oxaliplatin and paclitaxel treatment on neuronal cell\nviability. Cell viability assay of F11 cells after treatment at different concentrations of DF 2726A\n(DF; 1-20 µM), oxaliplatin (OXA, 5-60 µM), paclitaxel (PAC, 5-20 nM) and the combination of 20\nµM oxaliplatin+DF2726A (Oxa+DF) and paclitaxel+DF2726A (PAC+DF) at 24 h. Data are means"}, "[7]": {"details": "DF2726A 1 µM + oxaliplatin 20 µM"}},
  "note": "“Also recorded” adds a separate entry of the source.",
  "data": [
    {"smiles": "CC(C)(C(=O)O)c1ccc(Nc2nc(C(F)(F)F)cs2)cc1", "note": "[DF2726A]", "values": [
      {"measurement": "Effect on oxaliplatin-induced mechanical allodynia (paw withdrawal threshold, DPA test)", "setting": "[1]", "value": "significant anti-allodynic effect"},
      {"measurement": "Effect on oxaliplatin-induced loss of IENFs (PGP9.5)", "setting": "[2]", "value": "preventing the loss of epidermal innervation"},
      {"measurement": "Effect on oxaliplatin-increased IL-8/CINC1 signalling in the dermis", "setting": "[3]", "value": "significantly attenuated"},
      {"measurement": "Acetylated α-tubulin in neurons treated with DF2726A alone", "setting": "[4]; 1 µM, immunofluorescence", "value": "moderately present"},
      {"measurement": "Acetylated α-tubulin in oxaliplatin-treated neurons, combination with DF2726A", "setting": "[4]; [7]", "value": "counteracts chemotherapy-mediated effects; also recorded: comparable to that of control cells"},
      {"measurement": "Acetylated α-tubulin in paclitaxel-treated neurons, combination with DF2726A", "setting": "[4]; DF2726A + paclitaxel 10 nM", "value": "The same effect was observed; also recorded: comparable to that of control cells"},
      {"measurement": "PI3K/p-cortactin expression, oxaliplatin-treated neurons", "setting": "[5]; [7]", "value": "attenuated this effect"},
      {"measurement": "PI3K/p-cortactin expression, paclitaxel-treated neurons", "setting": "[5]; DF2726A + paclitaxel 10 nM", "value": "attenuated this effect"},
      {"measurement": "Neuronal cell viability", "setting": "[6]", "value": "ineffective in modulating neuronal cell viability"}
    ]}
  ]
}
